What was measured:
[1] = system: phospho-p90 RSK (RSK1 Thr359/Ser363) in A375 (Braf V600E) cells; assay: Phospho-p90 RSK ELISA using A375 (Braf V600E) cells; assay type: cell-based; settings: Homo sapiens, A-375, 2 hours compound treatment, read-out: Cellular Phospho-p90RSK IC50
ERK2 enzyme = ERK2 enzyme (Homo sapiens (Human), UniProt P28482); assay: Z'-LYTE kinase assay, inhibition of ERK activity; assay type: biochemical; settings: 100 μM ATP
Method: The inhibition of ERK activity by the compounds disclosed herein was determined using the Z′-LYTE kinase assay kit (Life Technologies) with a Ser/Thr 3 peptide substrate (Life Technologies) according to manufacturers' instructions. […] The IC50 values for the compounds were determined with 3-fold serial dilutions in duplicate. […] The final DMSO concentration in the assay was 1%. Final reaction volume was 20 μL/well in 384-well plates. Kinase reactions were conducted or 1 hour followed by the assay development reaction (1 hour) in a 20 ul/well in a 384 well plate format.

WM-266-4 cells = assay: Tumor cell line proliferation assay (CellTiter Glo), WM-266-4; assay type: cell-based; settings: Homo sapiens, 96 hours, read-out: WM-266-4 (V599D) Cell Proliferation IC50
A375 cells = assay: Tumor cell line proliferation assay (CellTiter Glo), A375; assay type: cell-based; settings: Homo sapiens, A-375, 96 h, read-out: A375 (V599E) Cell Proliferation IC50
[2] = In vitro Erk2, Z'-LYTE kinase assay

Chain of ERK2 enzyme (P28482 whole entry): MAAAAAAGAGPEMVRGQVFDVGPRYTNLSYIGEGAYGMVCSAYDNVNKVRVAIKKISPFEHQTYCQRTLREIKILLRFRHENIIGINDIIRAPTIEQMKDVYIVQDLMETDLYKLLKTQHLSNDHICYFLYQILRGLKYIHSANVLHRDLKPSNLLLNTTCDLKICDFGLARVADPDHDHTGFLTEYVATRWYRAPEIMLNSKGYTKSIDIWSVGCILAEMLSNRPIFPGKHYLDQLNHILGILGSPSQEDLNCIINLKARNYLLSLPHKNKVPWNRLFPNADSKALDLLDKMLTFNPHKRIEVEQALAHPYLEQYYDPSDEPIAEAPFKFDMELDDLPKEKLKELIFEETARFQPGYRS

IC50 [1] [nM] | IC50 (ERK2 enzyme; In vitro, ERK2 enzyme) [nM] | IC50 (WM-266-4 cells) [nM] | IC50 (A375 cells) [nM] | IC50 (ERK2 enzyme; [2]) [nM] | SMILES
≤ 250 | 50 to 250 | 250 to 1000 | 250 to 1000 |  | Cc1cc(-c2n[nH]c3cc4c(cc23)CN([C@H](C)c2ccc(Cl)cc2)C(=O)N4)ccn1 [Example 16]
≤ 250 |  |  |  | 50 to 250 | O=C1Nc2cc3[nH]nc(CC4CCOCC4)c3cc2CN1[C@@H]1CN(CC(F)(F)F)C[C@H]1c1ccccc1 [Example 361]
250 to 1000 |  |  |  | < 50 | COc1ccc(-c2n[nH]c3cc4[nH]c(=O)c(C5CCCN(Cc6ccccc6)C5)cc4cc23)cn1 (centres unmarked) [Example 367]
